This note sets out measurements from ChEMBL document CHEMBL1201862, “PubChem BioAssay data set” (2004).

Among the test systems are CCRF-CEM; DMS-273; HCT-15; HL-60; HOP-62; HT-29; IGROV-1; KM-20L2; LOX IMVI; Malme-3M; NCI-H226; NCI-H23; OVCAR-4; RXF 393; SF-268; SK-MEL-28; SK-MEL-5; SN12C; SW-620.
Assay in all cases: NCI anticancer screen, dose series, 48 h

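Values below derive from 48-hour exposures of cells grown in 96-well plates, with endpoints linearly interpolated between the two concentrations bracketing the appropriate inhibition level. The concentration for 50% growth inhibition is given as GI50.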 The source made the active and inactive calls. Cut-off read from the data, not from the text of the source: active = GI50 up to about 1.1 µM and inactive = higher.

For the compound `CCCCC(C(=O)C(=O)NC1C2CC3CC(C2)CC1C3)C(=O)C(C)C` (stereo not drawn), the GI50 in the test on CCRF-CEM is > 100 µM (inactive); with DMS-273, > 100 µM (inactive); in the test on HCT-15, more than 100 µM; with HL-60 it was > 100 µM (inactive); in the test on HOP-62, > 100 µM (inactive); in the test on HT-29, > 100 µM (inactive). For the same compound, the GI50 with IGROV-1, in the test with KM-20L2, in the test with LOX IMVI, with Malme-3M, with NCI-H226 and with NCI-H23 was > 100 µM (inactive) throughout. Further, the GI50 in the test on OVCAR-4, in the test with RXF 393, in the test with SF-268, with SK-MEL-28, with SK-MEL-5 and in the test with SN12C was > 100 µM (inactive) throughout. In addition, the GI50 in the test with SW-620 is > 100 µM (inactive).

With `Cc1nc2c(n1Cc1ccc(F)cc1)C(=O)c1ccccc1C2=O`, the GI50 in the test on CCRF-CEM was 10.5 µM (inactive); in the test with DMS-273 it was 6.43 µM (inactive); in the test with HCT-15 it was 4.29 µM; with HL-60 it was 5.48 µM (inactive); in the test with HOP-62, 27.7 µM (inactive); in the test with HT-29 it was 9.44 µM (inactive). Moreover, the GI50 with IGROV-1 is 25.8 µM (inactive); with KM-20L2, 38.5 µM (inactive); in the test on LOX IMVI, 7.18 µM (inactive); with Malme-3M, 8.89 µM (inactive); in the test on NCI-H226, 32.5 µM (inactive); in the test with NCI-H23, 13.2 µM (inactive). The GI50 was 31.1 µM (inactive) with OVCAR-4; 14.9 µM (inactive) in the test with RXF 393; 4.6 µM (inactive) in the test on SF-268; > 100 µM (inactive) with SK-MEL-28; 10.3 µM (inactive) in the test with SK-MEL-5; 54 µM (inactive) with SN12C. The GI50 with SW-620 is 41.3 µM (inactive).

For `NC(=S)N/N=C(/CC(=O)c1ccccc1)C(=O)Nc1ccc(Cl)c(Cl)c1`, the GI50 in the test with CCRF-CEM is 28.6 µM (inactive); in the test with DMS-273, 76.6 µM (inactive); in the test on HCT-15, 43.3 µM; in the test on HL-60 it was 23.3 µM (inactive); in the test with HOP-62 it was 60.4 µM (inactive); in the test on HT-29 it was > 100 µM (inactive). The GI50 in the test with IGROV-1 was 65.2 µM (inactive); in the test on KM-20L2, > 100 µM (inactive); in the test on LOX IMVI it was 74.3 µM (inactive); in the test with Malme-3M it was > 100 µM (inactive); with NCI-H226, > 100 µM (inactive); in the test with NCI-H23, > 100 µM (inactive). For the same compound, the GI50 was 57.3 µM (inactive) in the test with OVCAR-4; > 100 µM (inactive) in the test on RXF 393; > 100 µM (inactive) with SF-268; > 100 µM (inactive) in the test on SK-MEL-28; 41.7 µM (inactive) in the test on SK-MEL-5; > 100 µM (inactive) in the test with SN12C. Besides, in the test on SW-620, the GI50 is 78.5 µM (inactive).

As to `Cc1cccc2c1C/C(=C1\CCc3c(C)cccc31)C2=O`, the GI50 with CCRF-CEM was > 100 µM (inactive); with DMS-273, > 100 µM (inactive); in the test with HCT-15, more than 100 µM; with HL-60, > 100 µM (inactive); in the test with HOP-62, > 100 µM (inactive); in the test on HT-29, > 100 µM (inactive). Further, the GI50 in the test with IGROV-1, with KM-20L2, with LOX IMVI, in the test on Malme-3M, with NCI-H226 and in the test on NCI-H23 was > 100 µM (inactive) in each case. For the same compound, the GI50 with OVCAR-4 was 52.6 µM (inactive); with RXF 393, > 100 µM (inactive); in the test on SF-268 it was > 100 µM (inactive); with SK-MEL-28 it was > 100 µM (inactive); with SK-MEL-5, > 100 µM (inactive); in the test with SN12C, > 100 µM (inactive). Also, the GI50 in the test on SW-620 was > 100 µM (inactive).

Take `CCOC(=O)C(C)(C)Oc1ccc2c(=O)cc(-c3ccc(Cl)cc3)oc2c1`: the GI50 in the test with CCRF-CEM is > 100 µM (inactive); with DMS-273, > 100 µM (inactive); in the test with HCT-15, more than 100 µM; with HL-60, > 100 µM (inactive); in the test with HOP-62, > 100 µM (inactive); with HT-29, > 100 µM (inactive). Besides, the GI50 in the test on IGROV-1, in the test with KM-20L2, in the test with LOX IMVI, in the test with Malme-3M, in the test with NCI-H226 and in the test with NCI-H23 was > 100 µM (inactive) each time. The GI50 in the test on OVCAR-4, in the test with RXF 393, in the test with SF-268, with SK-MEL-28, in the test on SK-MEL-5 and in the test on SN12C was > 100 µM (inactive) each time. Besides, the GI50 in the test on SW-620 is > 100 µM (inactive).

With `O=C(/C=C/c1ccccc1Cl)NC1C=Nc2ccc([N+](=O)[O-])cc2NC1` (stereo not drawn), the GI50 with CCRF-CEM is 12.7 µM (inactive); with DMS-273 it was > 100 µM (inactive); in the test on HCT-15, 35.9 µM; in the test with HL-60 it was 49.2 µM (inactive); in the test on HOP-62 it was > 100 µM (inactive); in the test on IGROV-1, 88.7 µM (inactive). Besides, the GI50 was > 100 µM (inactive) in the test with KM-20L2; 39.4 µM (inactive) in the test on LOX IMVI; > 100 µM (inactive) with Malme-3M; > 100 µM (inactive) in the test on NCI-H226; 78.3 µM (inactive) in the test on OVCAR-4; 97.7 µM (inactive) in the test with RXF 393. The GI50 was > 100 µM (inactive) in the test on SF-268; > 100 µM (inactive) with SK-MEL-28; > 100 µM (inactive) with SK-MEL-5; 98.6 µM (inactive) with SN12C; 4.25 µM (inactive) in the test on SW-620.

On to `CCOC(=O)N1C/C(=C\c2ccc(N(C)C)cc2)C(=O)/C(=C/c2ccc(N(C)C)cc2)C1`, for which the GI50 in the test on CCRF-CEM was > 100 µM (inactive); in the test on DMS-273, > 100 µM (inactive); in the test on HCT-15, more than 100 µM; with HL-60, > 100 µM (inactive); in the test with HOP-62, > 100 µM (inactive); with HT-29, > 100 µM (inactive). Besides, the GI50 in the test with IGROV-1, with KM-20L2, with LOX IMVI, with Malme-3M, with NCI-H23 and in the test on OVCAR-4 was > 100 µM (inactive) each time. For the same compound, the GI50 with RXF 393, in the test on SF-268, in the test with SK-MEL-28, with SK-MEL-5, in the test on SN12C and in the test on SW-620 was > 100 µM (inactive) throughout.

In the case of `O=S(=O)(c1ccccc1)C(CN1CCCCC1)S(=O)(=O)c1ccccc1`, the GI50 was > 100 µM (inactive) in the test on CCRF-CEM; > 100 µM (inactive) in the test on DMS-273; more than 100 µM in the test with HCT-15; > 100 µM (inactive) in the test on HL-60; > 100 µM (inactive) in the test on HOP-62; > 100 µM (inactive) with HT-29. In addition, the GI50 in the test with IGROV-1, in the test with KM-20L2, with LOX IMVI, in the test on Malme-3M, with NCI-H226 and in the test with NCI-H23 was > 100 µM (inactive) in each case. Moreover, the GI50 in the test with OVCAR-4, in the test on RXF 393, with SF-268, with SK-MEL-28, in the test on SN12C and in the test on SW-620 was > 100 µM (inactive) throughout.
